Results from PubChem BioAssay AID2060336 (Molecular Pharmacology Branch, DTP, NCI, 2025).
pIC50: −log10 of the molar value. Several values for one entry are separate records, joined by “and”; a condition that tells them apart may be missing. Equal entries are not always repeated.

Tested on: 958767-090-R-J1-PDC spheroid growth
Assay: Anticancer human tumor 958767-090-R-J1-PDC patient-derived head and neck squamous carcinoma cell line growth inhibition [IpAb]
Conditions: spheroids with HUVEC and MSC; for viability, T/C: stronger effect = lower value; active = viability on the fitted dose curve at most 10% of control; inactive = the rest
Method in brief: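 Combinations with ipatasertib or abemaciclib were tested on tumour spheroids holding HUVEC (25%) and MSC (15%) alongside 60% malignant cells. Top concentration was at or near clinical Cmax (10 microM if undefined), descending in half-log steps.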
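Note: spheroids exposed to agents for 7 days.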
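Throughout, for viability, T/C: 100% = DMSO vehicle control wells.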

COc1c(OCCCN2CCOCC2)ccc2c3n(c(=NC(=O)c4cnc(N)nc4)nc12)CCN3 + CCN1CCN(Cc2ccc(Nc3ncc(F)c(-c4cc(F)c5nc(C)n(C(C)C)c5c4)n3)nc2)CC1
> 8.50: pIC50 (curve of first compound, second compound 0.1 µM)
active: viability, T/C (second compound 0.01 µM, first compound 0.316 µM) 6.31% | viability, T/C (second compound 0.01 µM, first compound 1 µM) 3.91% | viability, T/C (second compound 0.0316 µM, first compound 0.316 µM) 5.97% | viability, T/C (second compound 0.0316 µM, first compound 1 µM) 5.05% | viability, T/C (second compound 0.1 µM, first compound 0.316 µM) 7.66% | viability, T/C (second compound 0.1 µM, first compound 1 µM) 6.13% | viability, T/C (second compound 0.316 µM, first compound 0.316 µM) 8.1% | viability, T/C (second compound 0.316 µM, first compound 1 µM) 7.06%
8.06: pIC50 (curve of first compound, second compound 0.0316 µM)
8.36: pIC50 (curve of first compound, second compound 0.316 µM)
7.89: pIC50 (curve of first compound, second compound 1 µM)
8.10: pIC50 (curve of first compound, second compound 0.01 µM)
inactive: viability, T/C (second compound 0.01 µM, first compound 0.00316 µM) 64.5% | viability, T/C (second compound 0.01 µM, first compound 0.01 µM) 44.5% | viability, T/C (second compound 0.01 µM, first compound 0.0316 µM) 31.5% | viability, T/C (second compound 0.01 µM, first compound 0.1 µM) 12.7% | viability, T/C (second compound 0.0316 µM, first compound 0.00316 µM) 62.6% | viability, T/C (second compound 0.0316 µM, first compound 0.01 µM) 48.8% | viability, T/C (second compound 0.0316 µM, first compound 0.0316 µM) 28.5% | viability, T/C (second compound 0.0316 µM, first compound 0.1 µM) 17% | viability, T/C (second compound 0.1 µM, first compound 0.00316 µM) 44.3% | viability, T/C (second compound 0.1 µM, first compound 0.01 µM) 39.5% | viability, T/C (second compound 0.1 µM, first compound 0.0316 µM) 22.5% | viability, T/C (second compound 0.1 µM, first compound 0.1 µM) 15.9% | viability, T/C (second compound 0.316 µM, first compound 0.00316 µM) 53% | viability, T/C (second compound 0.316 µM, first compound 0.01 µM) 42.6% | viability, T/C (second compound 0.316 µM, first compound 0.0316 µM) 22.9% | viability, T/C (second compound 0.316 µM, first compound 0.1 µM) 19.4% | viability, T/C (second compound 1 µM, first compound 0.00316 µM) 74.1% | viability, T/C (second compound 1 µM, first compound 0.01 µM) 53.5% | viability, T/C (second compound 1 µM, first compound 0.0316 µM) 37% | viability, T/C (second compound 1 µM, first compound 0.1 µM) 26.9% | viability, T/C (second compound 1 µM, first compound 0.316 µM) 14.7% | viability, T/C (second compound 1 µM, first compound 1 µM) 12.4%

CC(C)(C)c1cnc(CSc2cnc(NC(=O)C3CCNCC3)s2)o1
6.80 and 6.76: pIC50 (curve of compound)
inactive: viability, T/C (compound 0.00949 µM) 106% and 118% | viability, T/C (compound 0.03 µM) 97% and 116% | viability, T/C (compound 0.0949 µM) 85.4% and 100%
active: viability, T/C (compound 0.3 µM) 6.79% and 3.17% | viability, T/C (compound 0.949 µM) 2.83% and 2.21% | viability, T/C (compound 3 µM) 2.61% and 2.81%
